Results on 40 molecules are retold here after ChEMBL document CHEMBL4834466 (J Med Chem, 2021).

Data set [1] is described as follows: Lipophilicity, logD of compound at pH 7.4. It counts as physicochemical. Particulars: buffer.
The nature of data set [2]: Metabolic stability in rat Hepatocyte assessed as intrinsic clearance at 0.5 uM incubated for 60 mins by LC-MS/MS analysis. It is filed as ADME, tissue-based. To be noted: hepatocytes, 1 h.
Data set [3] is described as follows: LBF in Wistar Han rat at 1 mg/kg, iv measured upto 7 hrs by LC-MS/MS analysis. Particulars: in vivo. It is filed as ADME, organism-based.
Data set [4] is described as follows: Metabolic stability in dog Hepatocyte assessed as intrinsic clearance at 0.5 uM incubated for 60 mins by LC-MS/MS analysis. It counts as ADME, tissue-based, Canis lupus familiaris. Particulars: hepatocytes, 1 h.
Data set [5] is described as follows: Metabolic stability in human Hepatocyte assessed as intrinsic clearance at 0.5 uM incubated for 120 mins by LC-MS/MS analysis. It is filed as ADME, tissue-based. Particulars: hepatocytes, 2 h.
Data set [6] can be described thus: Clearance in Wistar Han rat at 1 mg/kg, iv measured upto 7 hrs by LC-MS/MS analysis. It is filed as ADME, organism-based. Particulars: in vivo.
Data set [7] is described as follows: Unbound clearance in Wistar Han rat at 1 mg/kg, iv measured upto 7 hrs by LC-MS/MS analysis. It is filed as ADME, organism-based. Particulars: in vivo.
A short description of data set [8]: Volume of distribution at steady state in Wistar Han rat at 1 mg/kg, iv measured upto 7 hrs by LC-MS/MS analysis. It is filed as ADME, organism-based. Particulars: in vivo, read-out: Vdss.
The nature of data set [9]: Oral bioavailability in Wistar Han rat at 3 mg/kg measured upto 24 hrs by LC-MS/MS analysis. It counts as ADME, organism-based. Particulars: in vivo.
Data set [10] can be described thus: Half life in Wistar Han rat at 1 mg/kg, iv measured upto 7 hrs by LC-MS/MS analysis. It is filed as ADME, organism-based. To be noted: in vivo.
Data set [11] is described as follows: Clearance in Beagle dog at 0.5 mg/kg, iv measured upto 24 hrs by LC-MS/MS analysis. Particulars: in vivo. It is filed as ADME, organism-based, Canis lupus familiaris.
Data set [12] is described as follows: Unbound clearance in Beagle dog at 0.5 mg/kg, iv measured upto 24 hrs by LC-MS/MS analysis. It is filed as ADME, organism-based, Canis lupus familiaris. Particulars: in vivo.
The nature of data set [13]: LBF in Beagle dog at 0.5 mg/kg, iv measured upto 24 hrs by LC-MS/MS analysis. It is filed as ADME, organism-based, Canis lupus familiaris. To be noted: in vivo.
The nature of data set [14]: Volume of distribution at steady state in Beagle dog at 0.5 mg/kg, iv measured upto 24 hrs by LC-MS/MS analysis. It is filed as ADME, organism-based, Canis lupus familiaris. To be noted: in vivo, read-out: Vdss.
Data set [15] in a line: Half life in Beagle dog at 0.5 mg/kg, iv measured upto 24 hrs by LC-MS/MS analysis. To be noted: in vivo. It is filed as ADME, organism-based, Canis lupus familiaris.
Data set [16] in a line: Oral bioavailability in Beagle dog at 0.5 mg/kg measured upto 24 hrs by LC-MS/MS analysis. It is filed as ADME, organism-based, Canis lupus familiaris. To be noted: in vivo.

The structures appear in SMILES notation.

In data set [1], `CNC(=O)c1cc(C(=O)N[C@H]2CC[C@H](O)CC2)cc2c1OC[C@@]2(C)c1ccccc1` had a logD of 3.3.

In data set [1], `CNC(=O)c1cc(C(N)=O)cc2c1O[C@H](CF)[C@H]2c1ccccc1` had a logD of 2.9.

In [1], `CNC(=O)c1cc(C(=O)N[C@H]2[C@@H]3COC[C@@H]32)cc2c1OC[C@H]2c1ccncc1` (racemic) returned a logD of 1.3.

As to `CNC(=O)c1cc(C(=O)N[C@@H]2C[C@H]2C)cc2c1O[C@H](CF)[C@H]2c1ccccc1`, the pH-dependent lipophilicity (logD) in data set [1] stood at 4.5.

As to `CNC(=O)c1cc(C(=O)N[C@H]2[C@@H]3COC[C@@H]32)cc2c1OC[C@H]2c1ccccc1C`, the logD in [1] turned out to be 4. The CLH in data set [2] was found to be 30.9 mL/min/g.

`CNC(=O)c1cc(C(=O)NCCC[C@H]2OC[C@H](N)CO2)cc2c1OC[C@H]2c1ccccc1` gave a logD in [1] of 2.6.

In data set [1], `CNC(=O)c1cc(C(=O)N[C@H]2[C@@H]3COC[C@@H]32)cc2c1O[C@H](CF)[C@H]2c1ccccc1` [GSK973] came in with a logD of 3.6. In addition, the CLH in data set [2] amounted to 1.8 mL/min/g.

Molecule `CNC(=O)c1cc(C(=O)Nc2cnn(C)c2)cc2c1OC[C@H]2c1ccccc1` yielded a logD in data set [1] of 3.5. The CLH in [2] was 20.1 mL/min/g.

Consider `CNC(=O)c1cc(C(=O)N[C@H]2[C@@H]3COC[C@@H]32)cc2c1OC[C@H]2C1CCOCC1`, for which the logD in data set [1] worked out at 2.1.

As to `CNC(=O)c1cc(C(=O)N[C@H]2[C@@H]3COC[C@@H]32)cc2c1OC[C@@]2(C)c1ccccc1`, the LBF in data set [3] is 77%. Besides, in data set [1], the logD came out at 3.7. The CLH was 1.2 mL/min/g in [2], below 0.7 mL/min/g in [4] and below 0.5 mL/min/g in data set [5]. Also, the clearance in [6] is 3.66 L/h/kg. This molecule showed a CL free in [7] of 16.4 L/h/kg. For the same molecule, the Vd in data set [8] came out at 1.6 L/kg. Besides, the bioavailability in data set [9] amounted to 54%. In data set [10], the half-life was 18 min.

In the case of `CNC(=O)c1cc(C(=O)N[C@H]2C[C@@H]2C)cc2c1OC[C@@]2(CO)c1ccccc1`, the LBF in data set [3] is 60%. Further, in data set [1], the logD was determined as 3.3. Moreover, the values for the CLH in data set [2], in [4] and in data set [5] were 2.7 mL/min/g, 1 mL/min/g and below 0.5 mL/min/g, respectively. The molecule also came in with a clearance in data set [6] of 3.6 L/h/kg. This molecule came in with a CL free in data set [7] of 20.4 L/h/kg. Further, in [8], the Vd was 1.2 L/kg. For the same molecule, the bioavailability in data set [9] worked out at 38%. In data set [10], the half-life was 18 min.

As to `CNC(=O)c1cc(C(=O)NCCC[C@H]2OC[C@H](N)CO2)cc2c1O[C@H](CF)[C@H]2c1ccccc1`, the logD in data set [1] came to 2.9. In data set [2], the CLH was found to be 1.1 mL/min/g.

In data set [1], `CNC(=O)c1cc(C(=O)N[C@H]2[C@@H]3COC[C@@H]32)cc2c1OC[C@H]2c1cccnc1` (racemic) had a logD of 1.4.

`CNC(=O)c1cc(C(=O)NC)c2c(c1)[C@H](c1ccccc1)CO2` registered a logD in [1] of 3.2.

`CNC(=O)c1cc(C(=O)N[C@H]2[C@@H]3COC[C@@H]32)cc2c1OC[C@@]2(CO)c1ccccc1` yielded a logD in [1] of 2.4. For the same molecule, in [2], the CLH was found to be 1.4 mL/min/g.

The molecule `CNC(=O)c1cc(C(=O)N[C@H]2[C@@H]3COC[C@@H]32)cc2c1OC[C@H]2c1cccc(OC)c1` (racemic) had a logD in data set [1] of 3.2.

With `CNC(=O)c1cc(C(=O)N[C@H]2C[C@@H]2C)cc2c1OC[C@H]2c1ccccc1`, the logD in data set [1] was found to be 4.5.

As for `CNC(=O)c1cc(C(=O)NCCc2cnn(C)c2)cc2c1OC[C@H]2c1ccccc1`, the logD in [1] was 3.2.

On to `CNC(=O)c1cc(C(=O)NC2CC2)cn(Cc2ccccc2)c1=O` [GSK620], for which, in [1], the logD worked out at 3.1. The CLH in data set [2] came out at 1 mL/min/g.

As for `CNC(=O)c1cc(C(=O)NCCc2cnn(C)c2)cc2c1OC[C@H]2c1cccc2[nH]ccc12`, in data set [1], the pH-dependent lipophilicity (logD) was 3.2. Besides, the CLH in data set [2] is 16.3 mL/min/g.

Molecule `CNC(=O)c1cc(C(=O)N[C@H]2[C@@H]3COC[C@@H]32)cc2c1OC[C@H]2c1ccc(F)cc1` yielded a log distribution coefficient (logD) in data set [1] of 3.6. Also, in data set [2], the CLH was found to be 14.8 mL/min/g.

In data set [1], `CNC(=O)c1cc(C(=O)N[C@H]2[C@@H]3C[C@H](O)C[C@@H]32)cc2c1OC[C@@]2(C)c1ccccc1` had a logD of 3.7. Besides, the CLH in data set [2] was 6.4 mL/min/g.

For the molecule `CNC(=O)c1cc(C(=O)N[C@H]2[C@@H]3C[C@@H](O)C[C@@H]32)cc2c1OC[C@@]2(C)c1ccccc1`, the LBF is 69% in data set [3] and 8% in data set [13]. Further, the logD in data set [1] is 3.3. In addition, the results for the CLH in [2], in data set [4] and in data set [5] were 1 mL/min/g, below 0.7 mL/min/g and below 0.5 mL/min/g, respectively. Further, the clearance is 3.3 L/h/kg in data set [6] and 0.3 L/h/kg in [11]. Moreover, the CL free in [7] amounted to 15.6 L/h/kg; in data set [12] it was 1.44 L/h/kg. Moreover, the Vd in data set [8] came to 2.3 L/kg; in data set [14] it was 0.9 L/kg. For the same molecule, the bioavailability was 32% in [9] and 64% in data set [16]. In addition, the half-life in [15] was 174 min; in data set [10] it was 42 min.

`CNC(=O)c1cc(C(=O)NC2CC2)cc2c1OC[C@@]2(C)c1ccccc1` showed a logD in data set [1] of 4. The CLH in [2] was 6.7 mL/min/g.

In turn, `CNC(=O)c1cc(C(=O)NC2CC2)cc2c1OC[C@H]2c1cccc(F)c1` returned a logD in [1] of 3.7. Besides, the CLH in data set [2] was 10 mL/min/g.

Consider `CNC(=O)c1cc(C(=O)N[C@H]2C[C@@H]2C)cc2c1OC[C@@]2(C)c1ccccc1`, for which the logD in data set [1] worked out at 4.7.

In data set [1], `CNC(=O)c1cc(C(N)=O)cc2c1OC[C@H]2c1ccccc1` displayed a logD of 2.7.

Consider `CNC(=O)c1cc(C(=O)NC2CC2)cc2c1OC[C@H]2c1ccccc1`, for which the LBF in data set [3] came to 43%. The pH-dependent lipophilicity (logD) in data set [1] is 3.6. The CLH in [2] was 2 mL/min/g; in [4], below 0.7 mL/min/g; in data set [5], below 0.5 mL/min/g. The clearance in data set [6] is 2.04 L/h/kg. In [7], the CL free is 43.4 L/h/kg. Moreover, the Vd in [8] was 0.6 L/kg. Moreover, in [9], the bioavailability is 47%. For the same molecule, the half-life in [10] is 18 min.

Take `CNC(=O)c1cc(C(=O)N[C@H]2[C@@H]3COC[C@@H]32)cc2c1OC[C@H]2c1ccccc1`: the logD in data set [1] was 3.3. Besides, the CLH in data set [2] turned out to be 8.6 mL/min/g.

In the case of `CNC(=O)c1cc(C(=O)NC)c2c(c1)[C@](C)(c1ccccc1)CO2`, in data set [1], the logD stood at 3.4.

In turn, `CC[C@@]1(c2ccccc2)COc2c(C(=O)NC)cc(C(=O)N[C@H]3[C@@H]4COC[C@@H]43)cc21` had a logD in data set [1] of 4.2.

In [1], `CNC(=O)c1cc(C(=O)NC)c2c(c1)[C@H](c1ccccc1)[C@@H](CF)O2` returned a logD of 3.3. Besides, in data set [2], the CLH was determined as 3 mL/min/g.

Regarding `CNC(=O)c1cc(C(=O)NC2CC2)cc2c1OC[C@H]2c1cccc2[nH]ccc12`, the log distribution coefficient (logD) in data set [1] came to 3.5. For the same molecule, the CLH in data set [2] amounted to 4.6 mL/min/g.

The molecule `CNC(=O)c1cc(C(=O)NC2CC2)cc2c1OC[C@H]2c1cccc(OC)c1` (racemic) registered a pH-dependent lipophilicity (logD) in [1] of 3.8.

With `CNC(=O)c1cc(C(=O)NC2CC2)cc2c1OC[C@H]2c1ccc(F)cc1`, the logD in data set [1] came out at 3.8. Besides, the CLH in [2] came out at 6.1 mL/min/g.

`CNC(=O)c1cc(C(=O)N[C@H]2[C@@H]3COC[C@@H]32)cc2c1OC[C@H]2c1cccc2[nH]ccc12` displayed a logD in data set [1] of 3.1. Besides, the CLH in [2] is 3.6 mL/min/g.

In the case of `CNC(=O)c1cc(C(=O)NC2CC2)cc2c1O[C@H](CF)[C@H]2c1ccccc1`, the logD in data set [1] was determined as 3.9. Besides, the CLH in data set [2] turned out to be 3.2 mL/min/g.

Turning to `CNC(=O)c1cc(C(=O)N[C@H]2[C@@H]3C[C@@H](O)C[C@@H]32)cc2c1OC[C@H]2c1ccccc1`, in data set [1], the logD came out at 2.9. In [2], the CLH came out at 3.3 mL/min/g.

Molecule `CCC(=O)N1C[C@@H]2[C@H](C1)[C@H]2NC(=O)c1cc(C(=O)NC)c2c(c1)[C@H](c1ccccc1)CO2` had a logD in [1] of 3.4. Further, in data set [2], the CLH was found to be 6.8 mL/min/g.

Regarding `CNC(=O)c1cc(C(=O)N[C@H]2[C@@H]3COC[C@@H]32)cc2c1OC[C@H]2c1ccccn1` (racemic), the logD in data set [1] amounted to 1.6.
